Measurements taken from patent US7939546B2, “Quinoline derivatives for modulating DNA methylation” (SuperGen, Inc., priority 2007, dated 2011).
Read-outs that look alike come from different tables or passages of the source.

Columns and labels:
DNMT1 [1] = target: T1, DNMT1 (Homo sapiens, UniProt P26358); experiment: DNMT1 Inhibition Assay (Epigentek DNMT1 Activity/Inhibition kit); format: biochemical; conditions: 100 μM SAM, 2.2 μg/ml DNMT1 enzyme
Protocol: The DNMT1 Activity/Inhibition kit from Epigentek Inc. (Brooklyn, N.Y.) was used in this experiment (Catalog No. P-3006). In general terms, this assay utilizes an active DNMT1 enzyme incubated with S-adenosylmethionine (SAM) in 96-well plates upon which unmethylated DNA has been immobilized onto the surface of each well. After incubation the reaction wells are washed and probed with a primary anti-methylcytosine antibody, which will bind to methylated DNA. A secondary antibody is then used to detect the primary antibody and creates a signal that is proportional to the amount of methylated DNA in the well. Uninhibited DNMT1 produces a well with high levels of methylated DNA (high signal), whereas inhibited DNMT1 produces a well with low levels of methylation (low signal). The final concentrations of reagents used in this DNMT1 assay were as follows: 100 μM SAM and 2.2 μg/ml DNMT1 enzyme, with inhibitor concentrations typically ranging from 100 μM to 0.781 μM.
More specifically, test compounds were resuspended in 100% DMSO at 3 mM and serially diluted 1:2 in DMSO 8 times. A volume of 100 μl of 1× assay buffer was combined with 12 μl of 1 mM SAM solution and 4 μl of 66.7 μg/mL DNMT1 enzyme in the presence of 4 μl of test compound diluted in DMSO. Controls include enzyme only (no inhibitor, but containing 3.3% DMSO), no enzyme, and compounds having inhibitory activity. A volume of 30 μl of the mixed solution was then added to the substrate-coated wells in triplicate and incubated at 37° C. for 2 hours. Reaction wells are then washed 3× with 150 μl of DNMT wash buffer. The primary antibody (anti-methylcytosine) was diluted 1:1000 in wash buffer, added to each well (50 μl) and incubated at room temperature for 1 hour. Reaction wells were washed again. The secondary antibody was diluted 1:1000 in wash buffer, added to each well (50 μl) and incubated at room temperature for 30 min. The wells were washed for the last time. […] The stop solution was added (50 μl) and the plate was immediately read on a plate reader at 450 nm absorbance. […]
Target sequence in this assay (P26358 whole entry, species assumed): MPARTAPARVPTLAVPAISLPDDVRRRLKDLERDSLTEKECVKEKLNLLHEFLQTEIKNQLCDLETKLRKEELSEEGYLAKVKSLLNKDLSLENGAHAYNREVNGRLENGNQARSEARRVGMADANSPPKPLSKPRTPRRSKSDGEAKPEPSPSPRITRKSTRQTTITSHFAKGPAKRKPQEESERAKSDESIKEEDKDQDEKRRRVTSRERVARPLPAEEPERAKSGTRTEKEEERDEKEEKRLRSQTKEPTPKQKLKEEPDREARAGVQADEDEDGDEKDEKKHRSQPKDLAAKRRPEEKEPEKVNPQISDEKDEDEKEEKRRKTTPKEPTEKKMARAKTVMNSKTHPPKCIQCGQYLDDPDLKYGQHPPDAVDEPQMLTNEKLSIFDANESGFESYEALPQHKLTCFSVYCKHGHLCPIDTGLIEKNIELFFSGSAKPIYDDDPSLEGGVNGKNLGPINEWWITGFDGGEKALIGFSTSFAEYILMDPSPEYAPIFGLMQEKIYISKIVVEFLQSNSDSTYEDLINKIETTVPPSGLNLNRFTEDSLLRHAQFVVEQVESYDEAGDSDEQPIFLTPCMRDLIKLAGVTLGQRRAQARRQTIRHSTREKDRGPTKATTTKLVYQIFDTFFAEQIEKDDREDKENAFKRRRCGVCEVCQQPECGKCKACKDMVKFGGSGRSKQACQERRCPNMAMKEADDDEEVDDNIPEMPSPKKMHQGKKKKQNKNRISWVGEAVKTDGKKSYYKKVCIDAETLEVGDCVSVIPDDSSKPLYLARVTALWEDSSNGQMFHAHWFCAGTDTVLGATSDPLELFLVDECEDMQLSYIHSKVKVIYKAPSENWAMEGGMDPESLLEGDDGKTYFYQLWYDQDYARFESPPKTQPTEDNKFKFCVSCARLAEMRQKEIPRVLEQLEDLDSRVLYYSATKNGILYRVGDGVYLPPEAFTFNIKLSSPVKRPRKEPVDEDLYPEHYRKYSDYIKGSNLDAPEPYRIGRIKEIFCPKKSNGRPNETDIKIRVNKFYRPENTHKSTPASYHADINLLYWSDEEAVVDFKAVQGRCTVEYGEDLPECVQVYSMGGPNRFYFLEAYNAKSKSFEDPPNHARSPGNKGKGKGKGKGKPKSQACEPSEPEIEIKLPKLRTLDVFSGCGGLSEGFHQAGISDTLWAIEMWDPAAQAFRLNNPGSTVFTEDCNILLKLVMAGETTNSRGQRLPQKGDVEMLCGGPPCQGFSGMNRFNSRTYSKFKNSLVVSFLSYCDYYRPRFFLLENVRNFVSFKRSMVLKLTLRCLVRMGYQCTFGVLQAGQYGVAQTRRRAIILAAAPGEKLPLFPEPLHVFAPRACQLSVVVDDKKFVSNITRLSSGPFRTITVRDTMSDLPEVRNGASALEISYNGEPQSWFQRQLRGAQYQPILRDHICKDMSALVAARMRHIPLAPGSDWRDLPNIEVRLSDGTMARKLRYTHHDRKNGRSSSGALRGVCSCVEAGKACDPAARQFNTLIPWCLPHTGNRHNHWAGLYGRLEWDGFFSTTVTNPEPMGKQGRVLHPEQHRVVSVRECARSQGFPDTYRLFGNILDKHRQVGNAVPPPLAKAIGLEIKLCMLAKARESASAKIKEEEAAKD

DNMT1 [2] = target: T1, DNMT1; experiment: Selective depletion of DNMT1 by Western blot in treated HCT116 cells; format: cell-based; set-up: Protein extracts (equivalent to 100 μg) were isolated from HCT116 cells; endogenous in cells; host or cells: HCT116; conditions: for % DNMT1 protein level remaining at 5 µM: HCT-116, 5 μM; for % DNMT1 protein level remaining at 10 µM: HCT-116, 10 μM; for % DNMT1 protein level remaining at 100 µM: HCT-116, 100 μM
Source text: Biol. 2005, 11, 4727-41.]. For DNMT1, commercially available antibodies from Santa Cruz or New England Biolabs were used.
Target sequence in this assay (P26358 whole entry): as the sequence (P26358 whole entry, species assumed) above

[3] = system: CMV-EE210 cell line containing the epigenetically silenced GFP transgene; experiment: Cell-based GFP assay for demethylating activity (reactivation of silenced GFP transgene); conditions: for IC50: read-out: GFP IC50; for GFP Expression Level: test compound 30-50 μM, decitabine at 11 M (so in the source), three days
Protocol: (§1) The demethylating activity of non-bis-quaternary 4-anilinoquinolines were tested in a cell-based GFP (green fluorescent protein) assay. This assay has a GFP gene regulated by the CMV promoter and is sensitive to the methylation of CpG sites within the promoter. A decrease in methylation resulting from exposure to a methylation inhibitor leads to GFP expression and is readily scored. Specifically, the CMV-EE210 cell line containing the epigenetically silenced GFP transgene was used to assay for reactivation of GFP expression by flow cytometry. CMV-EE210 was made by transfecting NIH 3T3 cells with the pTR-UF/UF1/UF2 plasmid (Zolotuhin et al., 1996), which is comprised of pBS(+) (Stratagene, Inc.) containing a cytomegalovirus (CMV) promoter driving a humanized GFP gene adapted for expression in mammalian cells. After transfection, high-level GFP expressing cells were initially selected by FACS analysis and sorting using a MoFlo cytometer (Cytomation, Inc.). […] To screen for reactivation of CMV-EE210, decitabine (at […]) or a test compound (at a concentration of 30-50 μM) was added to complete medium (phenol red free DMEM (Gibco, Life Technologies) supplemented with 10% fetal bovine serum (Hyclone)). Cells were then seeded to 30% confluence (˜5000 cell/well) in 96 well plate containing the test compounds and grown for three days in at 37° C. in 5% CO2. The plates were examined under a fluorescent microscope using a 450-490 excitation filter (13 filter cube, Leica, Deerfield Ill.). Wells were scored g1 positive if 10% of viable cells express GFP, g2 positive if 30% of viable cells express GFP and g3 if greater than 75% of the viable cells express GFP. GFP IC 50 is the concentration of an inhibitor that (like an IC50) is the dose at which the GFP expression level goes from g3 to g1/2.

CMV-EE210 cell line = experiment: Toxicity (TD50, cell viability) reported with the GFP assay; conditions: for TD50: Dose at which cells are >50% viable
Protocol: as §1

[4] = dose at which the GFP expression level goes from g3 to g1/2

Compound	IC50 (DNMT1 [1]) [nM]	% DNMT1 protein level remaining at 5 µM (DNMT1 [2]) [%]	% DNMT1 protein level remaining at 10 µM (DNMT1 [2]) [%]	% DNMT1 protein level remaining at 100 µM (DNMT1 [2]) [%]	melting point	IC50 [3] [µM]	toxicity relative to decitabine (CMV-EE210 cell line)	TD50 (CMV-EE210 cell line) [µM]	GFP Expression Level [3]	% DNMT1 Level (DNMT1 [2]; 5 μM) [%]	% DNMT1 Level (DNMT1 [2]; 10 μM) [%]	% DNMT1 Level (DNMT1 [2]; 100 μM) [%]	IC50 [3, 4] [µM]
O=C(Nc1ccc(SC2CCCNC2)cc1)c1ccc(Nc2ccnc3ccccc23)cc1 (centres unmarked) [Cpd. GGG, N-(4-(piperidin-3-ylthio)phenyl)-4-(quinolin-4-ylamino)-benzamide]	310												
CN(C)c1ccc2nccc(Nc3ccc(C(=O)Nc4ccc(Nc5cc[n+](C)cc5)cc4)cc3)c2c1 [Cpd. O, 4-[4-({4-[(6-dimethylammonio-4-quinolinyl)amino]benzoyl}amino)-anilino]-1-methylpyridinium dichloride]		84	150	142	242 to 246 °C	12.5	less than one-half as toxic as decitabine	50					
O=C(Nc1ccc(SC2CNC(C(=O)O)C2)cc1)c1ccc(Nc2ccnc3ccccc23)cc1 (centres unmarked) [Cpd. DDD, 4-(4-(4-(quinolin-4-ylamino)benzamido)phenylthio)pyrrolidine-2-carboxylic acid]	1600												
CN(C)c1ccc2c(Nc3ccc(NC(=O)c4cccc(Nc5cc[n+](C)cc5)c4)cc3)ccnc2c1 [Cpd. CC, 7-(dimethylamino)-4-[4-({3-[(1-methyl-4-pyridiniumyl)amino]benzoyl}amino)aniline]quinolinium dichloride]		65	81	26	188 °C (dec.)	6	less than one-half as toxic as decitabine	25					
CN(C)c1ccc2nccc(Nc3ccc(C(=O)Nc4cccc(Nc5cc[n+](C)cc5)c4)cc3)c2c1 [Cpd. Q, 6-(dimethylamino)-4-[4-({3-[(1-methyl-4-pyridiniumyl)amino]anilino}carbonyl)anilino]quinolinium dichloride]		219	93	10	> 300 °C	12.5	less than one-half as toxic as decitabine	25					
C[n+]1ccc(Nc2ccc(NC(=O)c3ccc(Nc4ccnc5ccc(N)cc45)cc3)cc2)cc1 [Cpd. L, 4-[4-({4-[(6-ammonio-4-quinolinyl)amino]benzoyl}amino)anilino]-1-methylpyridinium dichloride]		144	145	128	262 to 266 °C	50		50	g2 (g2 positive if 30% of viable cells express GFP)				
O=C(Nc1ccc(SC2CCNC2)cc1)c1ccc(Nc2ccnc3ccccc23)cc1 (centres unmarked) [Cpd. EEE, 3-(4-(4-(quinolin-4-ylamino)benzamido)phenylthio)pyrrolidine]	5500												
C[n+]1ccc(Nc2ccc(C(=O)Nc3ccc(Nc4ccnc5cc(N)ccc45)cc3)cc2)cc1 [Cpd. Y, 4-[4-({4-[(7-amino-4-quinolinyl)amino]anilino}carbonyl)anilino]-1-methylpyridinium chloride]		93	63	77		100		25	g1 (g1 positive if 10% of viable cells express GFP)				
CN(C)c1ccc2c(Nc3ccc(C(=O)Nc4cccc(Nc5cc[n+](C)cc5)c4)cc3)ccnc2c1.Cl.[Cl-] [Cpd. Z, 7-(dimethylamino)-4-[4-({3-[(1-methyl-4-pyridiniumyl)amino]anilino}carbonyl)anilino]quinolinium dichloride]							less than one-half as toxic as decitabine	25		83	115	87	1
Cc1cc(Nc2ccc(NC(=O)c3ccc(Nc4ccnc5ccc(N(C)C)cc45)cc3)cc2)nc(N)n1.Cl [Cpd. P, N-[4-(2-amino-6-methylpyrimidin-4-ylamino)phenyl]-4-(6-(dimethylamino)quinolin-4-ylamino)benzamide hydrochloride]		57	91	11	260 to 265 °C		less than one-half as toxic as decitabine	25					50
